Results reported in PubChem BioAssay (NCI).
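Results reflect a 48-hour exposure of cells in 96-well plates to compound at five concentrations. GI50: concentration for 50% inhibition of growth. The concentration for full growth arrest is given as TGI.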

Columns and labels:
Experiment in all cases: NCI-60 cell line screen, 48 h
[1] = system: UACC-62 melanoma
[2] = system: LOX IMVI melanoma
[3] = system: MOLT-4 leukemia
[4] = system: COLO 205 colon
[5] = system: SNB-19 CNS
[6] = system: SF-295 CNS
[7] = system: RXF 393 renal
[8] = system: EKVX NSCLC
[9] = system: CCRF-CEM leukemia
[10] = system: HOP-92 NSCLC

SMILES	TGI [1]	TGI [2]	TGI [3]	TGI [4]	TGI [5]	TGI [6]	TGI [7]	TGI [8]	TGI [9]	TGI [10]	GI50 [1]	GI50 [2]	GI50 [3]	GI50 [4]	GI50 [5]	GI50 [6]	GI50 [7]	GI50 [8]	GI50 [9]	GI50 [10]
O=C1C2C3C=CC(C2C(=O)N1CN1CCOCC1)C1C2C(=O)N(CN4CCOCC4)C(=O)C2C31 (stereo not given)	> 63 µM	> 60.9 µM	53.3 µM	> 56.9 µM	> 78.9 µM	98.9 µM	> 65.2 µM	> 100 µM	57.9 µM	> 93.8 µM	–	–	–	–	–	–	–	–	–	–
CC(C)OC(=O)NNc1c(Cl)cc(Cl)cc1Cl	> 100 µM	> 100 µM	> 100 µM	> 100 µM	> 100 µM	> 100 µM	69.5 µM	> 100 µM	> 100 µM	> 100 µM	–	–	–	–	–	–	–	–	–	–
CC(C)CC1CC2C(=O)N(c3ccccc3)C(=O)C2c2[nH]c3ccccc3c21 (stereo not given)	> 31.6 µM	> 87.8 µM	> 58.7 µM	> 100 µM	> 100 µM	> 94.4 µM	44.9 µM	> 100 µM	> 56.6 µM	41.8 µM	–	–	–	–	–	–	–	–	–	–
CC12CC(Br)(Br)C(=O)C3C1CCCC32	19.7 µM	7.67 µM	14.9 µM	5.16 µM	28.8 µM	29.5 µM	6.04 µM	19.1 µM	9.43 µM	6.19 µM	–	–	–	–	–	–	–	–	–	–
COC(=O)c1cc2c3cc(Cl)ccc3[nH]c2c2ncccc12	> 100 µM	> 100 µM	> 100 µM	> 100 µM	> 100 µM	> 100 µM	> 100 µM	> 100 µM	> 100 µM	> 100 µM	> 100 µM	> 100 µM	> 100 µM	> 100 µM	> 100 µM	> 100 µM	> 100 µM	> 100 µM	> 100 µM	> 100 µM
COc1cc(/C=C/C(=O)c2cccc(-n3cc(-c4ccccc4)[nH]c3=O)c2)ccc1O	7.74 µM	9.16 µM	6.28 µM	9.91 µM	11 µM	21 µM	4.12 µM	36.3 µM	5.33 µM	6.68 µM	2.33 µM	2.5 µM	2.49 µM	3.85 µM	3.07 µM	6.75 µM	1.78 µM	6.38 µM	1.76 µM	1.99 µM
Oc1ccc(Br)cc1C=Nc1ccc(Oc2ccc(N=Cc3cc(Br)ccc3O)cc2)cc1	> 19.6 µM	> 19.6 µM	> 19.6 µM	> 19.6 µM	> 19.6 µM	> 19.6 µM	> 19.6 µM	> 19.6 µM	> 19.6 µM	> 19.6 µM	–	–	–	–	–	–	–	–	–	–
Nc1ncnc2occ(-c3ccc(NC(=O)Nc4cccc(C(F)(F)F)c4)cc3)c12	6.54 µM	12.1 µM	15.5 µM	9.16 µM	21.3 µM	15.7 µM	5.39 µM	14.5 µM	20.1 µM	10.1 µM	3.02 µM	2.57 µM	3.54 µM	4.53 µM	7.69 µM	3.76 µM	1.71 µM	4.46 µM	3.51 µM	3.43 µM
O=C1C=CC(=O)N1c1ccc2ccccc2c1	29.8 µM	31.3 µM	34.9 µM	4.22 µM	> 100 µM	> 100 µM	12.9 µM	39.6 µM	7.94 µM	22.2 µM	16.1 µM	16.4 µM	4.49 µM	2.01 µM	38.4 µM	> 100 µM	3.98 µM	17.9 µM	2.09 µM	7.59 µM
CN(C)Cc1c[nH]c2nc[nH]c(=O)c12	39.7 µM	40.9 µM	24.7 µM	> 100 µM	> 100 µM	> 100 µM	45.9 µM	> 100 µM	51 µM	85.8 µM	–	–	–	–	–	–	–	–	–	–
Cc1ccc(C)c(NC(=O)C(=O)C(C2C(C)CC(=O)C2CC(=O)O)[N+](=O)[O-])c1 (stereo not given)	> 100 µM	> 100 µM	> 100 µM	> 100 µM	> 100 µM	> 100 µM	> 100 µM	> 100 µM	> 100 µM	> 100 µM	–	–	–	–	–	–	–	–	–	–
O=C(NCCc1nccs1)c1cnc2c(S)cccc2c1	24.1 µM	92.8 µM	> 100 µM	3.75 µM	33.1 µM	17.1 µM	9.29 µM	38.2 µM	> 100 µM	40.8 µM	2.68 µM	2.35 µM	1.14 µM	1.56 µM	3.41 µM	2.8 µM	3.07 µM	3.1 µM	1.77 µM	19.8 µM
